Test results taken from patent US8741899B2, “(4-chloro-2-fluoro-N-(2-fluorophenyl)-5-[(8aR)-hexahydropyrrolo-[1,2-a]pyrazin-2(1H)-ylcarbonyl]-benzenesulfonamide, and pharmaceutically acceptable salts thereof” (AbbVie Inc., priority 2009, dated 2014).

Tests used:
Human Cav3.2 Channels = biological target: T1, Human Cav3.2 Channels (Homo sapiens, UniProt O95180); assay: Electrophysiologic (whole-cell patch-clamp) assessment of calcium channel activity in HEK293 cells stably expressing hCav3.2; assay type: cell-based; conditions: −77 mV, geometric mean, read-out: Human Cav3.2 −77 mV IC50 (μM) GeoMean
T1 construct: expressed in transfected cells
T1 sequence (O95180 whole entry): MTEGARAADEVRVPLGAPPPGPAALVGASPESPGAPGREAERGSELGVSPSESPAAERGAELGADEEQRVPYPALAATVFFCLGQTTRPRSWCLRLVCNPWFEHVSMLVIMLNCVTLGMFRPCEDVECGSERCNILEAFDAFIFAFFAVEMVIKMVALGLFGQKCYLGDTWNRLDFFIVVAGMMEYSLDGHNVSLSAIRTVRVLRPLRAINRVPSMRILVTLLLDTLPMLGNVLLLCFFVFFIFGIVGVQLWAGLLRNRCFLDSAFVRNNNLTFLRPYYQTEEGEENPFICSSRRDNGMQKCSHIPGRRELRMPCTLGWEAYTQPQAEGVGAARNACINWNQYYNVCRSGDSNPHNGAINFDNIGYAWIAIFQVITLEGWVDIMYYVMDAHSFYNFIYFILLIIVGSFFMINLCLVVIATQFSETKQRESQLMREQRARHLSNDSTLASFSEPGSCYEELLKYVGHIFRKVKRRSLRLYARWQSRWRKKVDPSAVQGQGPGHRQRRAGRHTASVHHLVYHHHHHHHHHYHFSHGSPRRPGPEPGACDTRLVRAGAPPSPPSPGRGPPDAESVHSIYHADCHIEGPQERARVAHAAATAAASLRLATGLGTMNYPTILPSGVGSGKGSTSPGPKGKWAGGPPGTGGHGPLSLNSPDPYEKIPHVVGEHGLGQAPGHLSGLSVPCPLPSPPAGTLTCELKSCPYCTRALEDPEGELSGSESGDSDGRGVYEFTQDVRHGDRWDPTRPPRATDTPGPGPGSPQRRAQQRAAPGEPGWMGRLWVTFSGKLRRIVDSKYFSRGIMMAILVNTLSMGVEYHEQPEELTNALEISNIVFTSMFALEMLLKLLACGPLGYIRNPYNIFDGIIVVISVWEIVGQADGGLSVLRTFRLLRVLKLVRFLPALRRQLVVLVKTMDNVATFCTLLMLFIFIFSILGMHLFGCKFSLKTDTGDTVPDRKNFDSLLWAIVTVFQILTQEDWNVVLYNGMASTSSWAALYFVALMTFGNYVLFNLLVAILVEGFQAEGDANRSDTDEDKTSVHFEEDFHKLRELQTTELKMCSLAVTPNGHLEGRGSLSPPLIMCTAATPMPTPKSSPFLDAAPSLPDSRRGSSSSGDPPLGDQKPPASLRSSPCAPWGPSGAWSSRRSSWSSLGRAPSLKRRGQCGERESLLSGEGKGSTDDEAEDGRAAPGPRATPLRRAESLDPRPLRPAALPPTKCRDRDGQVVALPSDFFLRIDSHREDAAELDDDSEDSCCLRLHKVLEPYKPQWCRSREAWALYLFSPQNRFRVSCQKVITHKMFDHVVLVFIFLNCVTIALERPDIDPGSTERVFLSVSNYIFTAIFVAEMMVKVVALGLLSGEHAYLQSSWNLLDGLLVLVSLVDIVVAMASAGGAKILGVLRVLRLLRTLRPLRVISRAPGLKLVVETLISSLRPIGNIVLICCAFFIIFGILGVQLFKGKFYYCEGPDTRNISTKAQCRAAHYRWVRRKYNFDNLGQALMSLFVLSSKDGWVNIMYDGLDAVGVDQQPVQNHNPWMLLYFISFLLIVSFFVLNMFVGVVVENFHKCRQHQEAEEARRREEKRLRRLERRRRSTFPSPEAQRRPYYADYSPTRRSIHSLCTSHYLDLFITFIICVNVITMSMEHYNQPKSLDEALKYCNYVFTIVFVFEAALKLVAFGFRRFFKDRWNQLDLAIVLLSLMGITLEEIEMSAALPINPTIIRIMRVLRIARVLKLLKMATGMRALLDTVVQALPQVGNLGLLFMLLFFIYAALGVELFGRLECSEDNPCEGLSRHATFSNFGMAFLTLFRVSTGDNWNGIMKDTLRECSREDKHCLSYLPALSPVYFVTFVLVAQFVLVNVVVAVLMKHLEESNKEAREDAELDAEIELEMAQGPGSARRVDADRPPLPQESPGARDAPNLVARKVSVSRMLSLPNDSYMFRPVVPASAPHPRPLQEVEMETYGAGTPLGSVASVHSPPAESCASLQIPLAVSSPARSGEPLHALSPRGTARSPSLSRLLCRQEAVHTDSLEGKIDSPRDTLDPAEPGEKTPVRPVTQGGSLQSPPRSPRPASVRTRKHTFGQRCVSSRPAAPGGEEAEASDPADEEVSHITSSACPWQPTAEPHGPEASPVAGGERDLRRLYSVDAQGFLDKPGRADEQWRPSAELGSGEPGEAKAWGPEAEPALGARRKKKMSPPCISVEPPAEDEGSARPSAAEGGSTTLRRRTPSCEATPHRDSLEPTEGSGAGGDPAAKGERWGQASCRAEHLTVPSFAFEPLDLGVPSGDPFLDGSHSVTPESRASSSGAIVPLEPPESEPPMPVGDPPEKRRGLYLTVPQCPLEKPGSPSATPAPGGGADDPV
Outline: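 HEK293 cells stably expressing hCav3.2, whole-cell patch clamp; external 5 mM CaCl2 with CsCl/TEA-Cl, pH 7.2; Cs-based internal with 4 mM Mg2ATP. Two-pulse protocol: 8 s prepulse at −100 mV or ~−75 mV, then test pulse to −30 mV. Cumulative antagonist additions, 5 min each; responses normalized to DMSO vehicle.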

Sprague Dawley rats = assay: Capsaicin induced secondary mechanical hyperalgesia model; assay type: in vivo; conditions: rat, 60 minutes before testing, secondary mechanical hyperalgesia 180 minutes after capsaicin, von Frey filaments
Protocol: (ii) In Vivo Data—Capsaicin Induced Secondary Mechanical Hyperalgesia Model:
Sprague Dawley rats were briefly restrained, and capsaicin was administered at 10 μg in 10 μL of vehicle by intraplantar injection into the center of the right hind paw. Secondary mechanical hyperalgesia (SMH) was measured at the heel away from the site of injection 180 minutes following capsaicin exposure. Compounds and gabapentin (positive control), were administered p.o. 60 minutes before testing (2 hours after capsaicin) or i.p. 30 minutes before testing (2.5 hours after capsaicin). SMH was measured using calibrated von Frey filaments (Stoelting, Woodale, Ill.). Following the 1 hour habituation in the testing room, rats were moved to individual plexiglass chambers that sit on top of a wire mesh to allow for access for stimulation of the plantar surface of the hind paws. Rats were allowed to acclimate to the new chambers for 15 minutes before the onset of testing. The paw withdrawal threshold was determined by increasing and decreasing stimulus intensity (force: g) and calculated using Dixon's up-down method (Chaplan, S. R.; Bach, F. W.; Pogrel, J. W.; Chung, J. M.; Yaksh, T. L.; Quantitative assessment of tactile allodynia in the rat paw. J. Neuroscience Methods 1994, 53(1), 55-63). The filaments (maximum force of 15.0 g) were held in place for 8 seconds or until there was a withdrawal response from the mechanical stimulation.

SMILES	IC50 (Human Cav3.2 Channels) [µM]	Inhibition to Pain Response, % inhibition @ 30 mg/kg p.o. (Sprague Dawley rats) [%]
O=C(c1cccc(S(=O)(=O)Nc2ccccc2F)c1)N1CCN2CCC[C@@H]2C1 [Example 2, N-(2-fluorophenyl)-3-[(8aR)-hexahydropyrrolo[1,2-a]pyrazin-2(1H)-ylcarbonyl]benzenesulfonamide]	10.6	58
O=C(c1cccc(S(=O)(=O)Nc2cccc(F)c2)c1)N1CCN2CCC[C@H]2C1 [Example 3, N-(3-fluorophenyl)-3-[(8aS)-hexahydropyrrolo[1,2-a]pyrazin-2(1H)-ylcarbonyl]benzenesulfonamide]	5.9	44
O=C(c1cccc(S(=O)(=O)Nc2c(F)cccc2F)c1)N1CCN2CCC[C@@H]2C1 [Example 13, N-(2,6-difluorophenyl)-3-[(8aR)-hexahydropyrrolo[1,2-a]pyrazin-2(1H)-ylcarbonyl]benzenesulfonamide]	5.6	37

More lines, main results first:

IC50 (Human Cav3.2 Channels) [µM]	SMILES	Inhibition to Pain Response, % inhibition @ 30 mg/kg p.o. (Sprague Dawley rats) [%]
6	O=C(c1cc(S(=O)(=O)Nc2ccccc2F)c(F)cc1Cl)N1CCN2CCC[C@@H]2C1 [Example 20, 4-chloro-2-fluoro-N-(2-fluorophenyl)-5-[(8aR)-hexahydropyrrolo[1,2-a]pyrazin-2(1H)-ylcarbonyl]benzenesulfonamide]	43
1.1	O=C(c1cccc(S(=O)(=O)Nc2ccc(C(F)(F)F)cc2)c1)N1CCN2CCCCC2C1 (stereo not drawn) [Example 37, 3-(octahydro-2H-pyrido[1,2-a]pyrazin-2-ylcarbonyl)-N-[4-(trifluoromethyl)phenyl]benzenesulfonamide]	63
1.7	O=C(c1cc(S(=O)(=O)Nc2ccccc2F)c(Cl)cc1Cl)N1CCN2CCC[C@@H]2C1 [Example 64, 2,4-dichloro-N-(2-fluorophenyl)-5-[(8aR)-hexahydropyrrolo[1,2-a]pyrazin-2(1H)-ylcarbonyl]benzenesulfonamide]	57
